# Literature values as cited in US7745427B2, “CGRP receptor antagonists” (Merck Sharp & Dohme Corp., priority 2004, dated 2010).
# No end group written: not given here.
# How the values were obtained:
# middle meningeal artery = settings: rats, prior administration; Williamson et al. 1997
# facial blood flow [1] = settings: rat; Escott et al. 1995
# facial blood flow [2] = settings: marmoset; Doods et al. 2000
# [3] = tested on: acute attacks of migraine; settings: clinical trials; Olesen et al. 2004
Compound,increase in diameter of the middle meningeal artery (middle meningeal artery),increased facial blood flow (facial blood flow [1]),increase in facial blood flow (facial blood flow [2]),treating acute attacks of migraine [3]
"CGRP(8-37): ""a peptide CGRP antagonist"" (VTHRLAGLLSRSGGVVKNNFVPTNVGSKAF; ends and bridges not checked; UniProt P06881 90-119, looked up, fragment)",blocked,inhibited,,
NCCCC[C@H](NC(=O)[C@@H](Cc1cc(Br)c(O)c(Br)c1)NC(=O)N1CCC(N2Cc3ccccc3NC2=O)CC1)C(=O)N1CCN(c2ccncc2)CC1 [BIBN4096BS],,,blocked,effective
